# Measurements from patent publication US8536165B2, “Azabiphenylaminobenzoic acid derivatives as DHODH inhibitors” (Almirall, S.A., priority 2007, dated 2013).
# Legend:
# [1] = target: human DHODH (Homo sapiens (Human), UniProt Q02127); assay: Inhibition of Human DHODH Activity Assay; format: biochemical; settings: chromogen reduction assay with DCIP, human enzyme extract, 10 min at room temperature; read-out: hDHODH IC50
# Procedure: DHODH activity and its inhibition were studied using a chromogen reduction assay with DCIP (2,6-dichlorophenol-indophenol). […] Enzyme extracts (8 μl, ˜1.5 μg of human protein) were incubated in 96-well plates. The assay mixture (200 μl) contained 200 μM CoQD, 100 μM L-DHO, 120 μM DCIP in the assay buffer (100 mM HEPES pH 8.0, 150 mM NaCl, 10% Glicerol, 0.05% Triton X-100) and 2 μl of test compound. The compounds were dissolved in DMSO at a stock concentration of 1 mM, and tested at different concentrations […] to calculate an IC50 (concentration of inhibitor required for 50% of inhibition).
# The reaction was initiated by adding the enzyme and then incubated for 10 min at room temperature before measuring DCIP reduction by counting a decrease in absorbance at 600 nm using standard instrumentation (Spectramax).
# All reactions were carried out in duplicate and graphs, determining IC50 values for each compound, were plotted using the ABase software.
# [2] = tested on: HIV; settings: at concentration that can be obtained with conventional dosing; cited from earlier work
# human DHODH, sequence (Q02127 whole entry): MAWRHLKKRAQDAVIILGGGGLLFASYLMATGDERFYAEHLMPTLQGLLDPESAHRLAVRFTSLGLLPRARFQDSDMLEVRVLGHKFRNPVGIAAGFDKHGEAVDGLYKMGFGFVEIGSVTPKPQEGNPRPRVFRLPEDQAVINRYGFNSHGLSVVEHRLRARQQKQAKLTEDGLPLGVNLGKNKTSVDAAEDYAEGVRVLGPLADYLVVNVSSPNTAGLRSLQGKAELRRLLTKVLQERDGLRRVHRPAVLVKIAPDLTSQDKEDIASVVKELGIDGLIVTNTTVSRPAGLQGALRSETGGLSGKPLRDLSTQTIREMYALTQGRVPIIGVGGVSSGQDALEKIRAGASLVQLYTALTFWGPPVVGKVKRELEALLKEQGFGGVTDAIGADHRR
IC50 [1] [µM],Compound,reduction of HIV replication [2]
0.021,"O=C(O)c1cc(C2CC2)ccc1Nc1cnc(-c2cc(C(F)(F)F)ccc2F)nc1 [Example 104, 5-Cyclopropyl-2-(2-(2-fluoro-5-(trifluoromethyl)phenyl)pyrimidin-5-ylamino)benzoic acid]",
,Cc1oncc1C(=O)Nc1ccc(C(F)(F)F)cc1 [Leflunomide],about 75%
